The numbers were not newly measured in patent US20090253799A1 (priority 2008, published 2009), which cites them from elsewhere.

The target of the data set is T1, wildtype CFTR (Homo sapiens, UniProt P13569).
T1 construct: expressed in transfected cells
The following applies: Muanprasat et al. 2004.

SMILES strings stand for the structures.

T1 sequence (P13569 whole entry): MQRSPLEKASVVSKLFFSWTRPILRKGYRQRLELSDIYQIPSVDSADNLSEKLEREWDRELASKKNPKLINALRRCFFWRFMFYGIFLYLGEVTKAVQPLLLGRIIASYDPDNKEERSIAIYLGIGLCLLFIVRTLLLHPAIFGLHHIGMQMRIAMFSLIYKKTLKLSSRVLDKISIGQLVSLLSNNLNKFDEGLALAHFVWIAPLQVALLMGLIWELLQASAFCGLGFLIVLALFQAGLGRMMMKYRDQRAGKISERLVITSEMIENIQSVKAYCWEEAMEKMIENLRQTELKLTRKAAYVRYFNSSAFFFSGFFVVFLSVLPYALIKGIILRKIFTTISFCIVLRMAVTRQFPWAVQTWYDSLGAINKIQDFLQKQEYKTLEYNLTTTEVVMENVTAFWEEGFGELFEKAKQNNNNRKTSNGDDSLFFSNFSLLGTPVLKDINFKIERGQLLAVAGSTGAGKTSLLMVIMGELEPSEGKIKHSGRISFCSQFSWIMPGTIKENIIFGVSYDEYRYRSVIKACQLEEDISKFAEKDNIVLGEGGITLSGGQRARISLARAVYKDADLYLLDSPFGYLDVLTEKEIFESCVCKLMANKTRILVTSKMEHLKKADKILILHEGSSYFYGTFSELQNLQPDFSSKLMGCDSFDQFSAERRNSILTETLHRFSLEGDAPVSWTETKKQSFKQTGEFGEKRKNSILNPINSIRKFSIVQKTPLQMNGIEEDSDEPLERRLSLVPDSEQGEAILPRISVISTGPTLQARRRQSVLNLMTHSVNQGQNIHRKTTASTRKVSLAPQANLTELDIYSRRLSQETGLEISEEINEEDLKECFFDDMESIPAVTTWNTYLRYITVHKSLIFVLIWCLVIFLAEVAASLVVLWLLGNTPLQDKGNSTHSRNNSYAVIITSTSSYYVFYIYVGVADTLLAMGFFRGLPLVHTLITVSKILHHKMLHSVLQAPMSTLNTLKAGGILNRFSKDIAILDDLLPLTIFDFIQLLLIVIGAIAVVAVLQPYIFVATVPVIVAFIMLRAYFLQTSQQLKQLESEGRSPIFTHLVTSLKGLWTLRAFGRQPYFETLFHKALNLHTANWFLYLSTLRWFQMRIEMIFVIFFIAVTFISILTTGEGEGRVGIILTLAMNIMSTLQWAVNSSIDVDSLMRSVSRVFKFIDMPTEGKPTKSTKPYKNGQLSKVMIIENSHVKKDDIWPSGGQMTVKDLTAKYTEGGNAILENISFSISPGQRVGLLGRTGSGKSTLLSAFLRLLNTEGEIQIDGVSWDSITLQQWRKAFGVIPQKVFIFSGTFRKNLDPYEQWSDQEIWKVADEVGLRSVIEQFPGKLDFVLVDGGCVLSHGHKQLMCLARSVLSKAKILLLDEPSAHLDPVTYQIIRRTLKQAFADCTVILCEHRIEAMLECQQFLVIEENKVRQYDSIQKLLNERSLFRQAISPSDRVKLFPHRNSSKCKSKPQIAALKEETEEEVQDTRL

Turning to `O=C(CNc1ccc2ccccc2c1)N/N=C/c1cc(Br)c(O)c(Br)c1O` [GlyH-101], the “time constants for block and unblock” value is 8 to 10 ms.
